Values joined by “and” are separate entries in the source; they are usually repeats but may differ in a detail not shown here. Identical values can stand only once. “Also recorded” adds a separate entry of the source.
Columns and labels:
[1] = target: T1, endogenous Mcl-1 (Homo sapiens, UniProt Q07820); assay: Biotin-streptavidin pulldown with BL-Noxa, 2LMP whole cell lysate; type: binding
T1 construct: endogenous in cells; host or cells: 2LMP (subclone of MDA-MB-231), whole cell lysate
Procedure: 2LMP cells, a subclone of MDA-MB-231, were harvested (~15 × 10^6) and lysed via sonication with CHAPS buffer (10 mM HEPES pH 7.4, 2.5 mM EDTA, 150 mM NaCl, 1% (w/v) CHAPS, pH 7.4). […] Protein-peptide complexes were pulled down with agarose beads for 2 hrs. Beads were washed with CHAPS buffer and Mcl-1 protein was eluted by boiling in SDS-PAGE loading dye. Samples were analysed by western blotting with the Mcl-1 antibody (Thermo Scientific #MS-681-P1).

[2] = target: T2, Mcl-1 protein (Homo sapiens, UniProt Q07820); assay: FP-based competitive binding assay with fluorescent labelled Bid BH3 peptide; conditions: for Ki: calculated from FP IC50; for IC50: competition with fluorescent Bid probe 2 nM, 20 nM Mcl-1 for purchased compounds, 10 nM for synthesized library
T2 construct: human Mcl-1 (residues 171–323); His tag (pHis-TEV vector) (N, cleaved yes); made in house; host or cells: E. coli BL21 (DE3)
Procedure: FP-based binding assays were developed and optimized to determine the binding affinities of inhibitors to the recombinant Mcl-1, Bcl-2, Bcl-xL, and Bfl-1, proteins. […] The fluorescent Bid probe was fixed at 2 nM for all assays, except for Bfl-1, where 1 nM was used. 5 μL of the tested compound in DMSO and 120 μL of protein/probe complex in the assay buffer were added to assay plates (Corning #3792), incubated at room temperature for 3 h, and the polarization values (mP) were measured at an excitation wavelength of 485 nm and an emission wavelength of 530 nm using the plate reader Synergy H1 Hybrid, BioTek. IC50 values were determined by nonlinear regression fitting of the competition curves (GraphPad Prism 6.0 Software). The Ki values were calculated as described previously.
1. List of compounds purchased from vendors
Compound s 5, 6, 7, 8 and S3, S4, S5, S6 S7, S8, S9, S10, S17 were purchased from […]
Compound s 9, 10, 11 and S11, S12, S13 were purchased from I nterbioscreen […]
His-tagged proteins containing human Mcl-1 (residues 171–323), the isoform 2 construct of the human Bcl-2 [Bcl2-2 construct for protein production starts with the Bcl2 sequence of 1-34 a a, followed by the Bcl-xL seq uence of 35-50 aa, and ends with the Bcl-2 sequenc e of 92-202aa.], Bcl-xL (Human Bcl-xL protein, which has an internal deletion for the 45 -85 amino acid residues and a C -terminal truncation for the amino acid residues 212-233), and Bf l-1 (residues 1-151), were expres sed from the pHis -TEV vector (a modified pET vector) in E. coli BL21 (DE3) cells. Cells were grown at 37 °C in 2×YT containing antibiotics to an OD600 density of 1.5, 1 and 0.8 for Mcl-1, Bcl-xL and Bcl-2 respectively. Protein expression wa s induced by 0 .4 mM IPTG at 20 °C overnight for all proteins except for Bf l-1 which was e xpressed at 3 7 °C for four hours . Cells were lysed in 20 mM HEPES pH 7.5, 200 mM NaCl, 0.1% βME with Leupeptin/Aprotinin (Mcl-1), 25mM Tris pH 8.5, 200mM NaCl (Bcl-2), 50mM Tris pH 7.5, 200 mM NaCl (Bcl-xL) and 50 mM Tris pH 8, 500 mM NaCl, 0. 1% βME with Leupeptin/Aprotinin (Bf l-1). All […]
proteins were purified from the soluble fraction using Ni-NTA resin (QIAGEN), following the manufacturer’s instructions. For purification of TEV-cleaved protein, the amino-terminal His tag was cleaved by incubation with TEV protease and the protein was further purified by anion exchange (Source Q) and gel filtration chromatography (Superdex 75, Amersham Biosciences) in 20mM HEPES pH 7.0, 50 mM NaCl (Mcl-1), […]
NaCl, 0.1% βME (Bcl-xL) and 25 mM Tris pH 7.5, 150 mM NaCl, 25% Glycerol, 0.1% βME ( Bf l-1). His-tagged Mcl-1 protein was used for TR-FRET assay and HSQC-NMR.
His-TEV cleaved Mcl-1, Bcl-2, Bcl-xL, and Bf l-1 were used in fluorescent polarization and surface plasmon resonance binding assays.
Mutant Mcl-1 protein wa s prepared by the QuikChange site -directed mutagenesi s method (Stratagene) , where Arg263 was mutated to Ala. The R263A expression pla smid was transformed into Rosetta2 DE3 cells and purified by the same method as the wildtype protein. Cultures were grown to an OD 600 of 1. 5 at 37 °C in Terrific Broth, induced with 0. 4 mM IPTG, and express ed overnight at 20 °C. The follow-up purification was performed the same way as was for Mcl-1 wild-type recombinant

[3] = target: T2, Mcl-1 protein; assay: SPR-based solution competitive binding assay, immobilized biotin-labelled Bim BH3 peptide; conditions: Mcl-1 20 nM; competition with immobilized Bim BH3 peptide
Procedure: The solution competitive SPR-based assay was performed on Biacore 2000 in a similar way as was already reported. Briefly, N terminal biotin-labelled Bim BH3 peptide (141–166 amino acids) was immobilized on streptavidin (SA) chip giving a density of 800 RU (Response Units). The pre-incubated Mcl-1 protein (20 nM) with tested small-molecule inhibitors for at least 30 min was injected over the surfaces of the chip using assay buffer HBS-P (GE, #BR100368). Response units were measured at 15 s in the dissociation phase, and IC50 values were determined by nonlinear least-squares analysis using GraphPad Prism 6.0 software.

[4] = system: wild-type MEFs; assay: MEF cell death, propidium iodide flow cytometry; type: cell-based, mouse
Procedure: (§1) MEF cells, including wild-type, Bax/Bak double knockout, Bax−/− single knockout, and Bak−/− single knockout were tested and characterized (Supplementary Fig. S3). The cells were cultured in DMEM (Life Technologies), supplemented with 10% fetal bovine serum (FBS) (Thermo Scientific HyClone) and 1% Penicillin/streptomycin solution (Life Technologies). The retrovirally transduced lymphoma cells isolated from Eμ-myc transgenic mice were provided by Ricky W. Johnstone at the University of Melbourne, Melbourne, Australia and cultured as previously described[37],[65].
(§2) MEFs were seeded in 24-well plates at 0.5 × 10^5 cells/well, left to adhere for 5 hours and then treated for 15 hours with increasing concentrations of the compounds. The cells were harvested, washed with phosphate-buffered saline (PBS) and stained with 0.025 mg/ml propidium iodide (MP Biomedicals). The percentage of the propidium iodide positive population was determined by flow cytometry and calculated using WinList 3.0.

[5] = system: Bax/Bak double knockout (DKO) MEFs; assay: MEF cell death, propidium iodide flow cytometry; type: cell-based, mouse
Procedure: as §1, §2

[6] = increasing concentrations, 15 h
[7] = 100 µM of hits (15: 10, 20, 30 µM), 15-hour treatment, propidium iodide

T2 sequence (Q07820 171-323): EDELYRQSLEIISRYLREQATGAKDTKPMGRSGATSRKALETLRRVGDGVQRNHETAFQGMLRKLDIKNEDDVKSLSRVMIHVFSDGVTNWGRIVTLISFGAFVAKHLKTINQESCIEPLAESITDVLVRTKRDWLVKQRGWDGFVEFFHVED
T1 sequence (Q07820 whole entry): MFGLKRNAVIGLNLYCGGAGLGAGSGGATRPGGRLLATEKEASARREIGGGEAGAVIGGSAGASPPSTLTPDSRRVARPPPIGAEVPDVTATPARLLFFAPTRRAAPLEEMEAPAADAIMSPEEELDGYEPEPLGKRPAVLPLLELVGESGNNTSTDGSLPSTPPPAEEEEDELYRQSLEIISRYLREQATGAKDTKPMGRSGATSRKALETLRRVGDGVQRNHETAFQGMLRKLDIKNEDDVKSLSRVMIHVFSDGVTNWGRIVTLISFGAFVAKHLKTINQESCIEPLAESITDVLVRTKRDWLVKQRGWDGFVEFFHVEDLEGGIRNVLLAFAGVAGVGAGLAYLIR

Structure (SMILES)	disruption of BL-Noxa binding to endogenous Mcl-1 [1]	Ki [2]	IC50 [2]	IC50 [3]	cell death in wild-type MEFs [4, 6]	cell death in Bax/Bak DKO MEFs [5, 6]	cell death induction in wild-type MEFs, screening of hits [4, 7]	cell death induction in Bax/Bak DKO MEFs, screening of hits [5, 7]
c1ccc(CCCCSc2nnc(-c3ccco3)c(-c3ccco3)n2)cc1 [Compound 44]	dose-dependent blocking	0.3 ± 0.1 µM	1.4 ± 0.2 µM					
O=C(CSc1nnc(-c2ccco2)c(-c2ccco2)n1)Nc1cccc(C(F)(F)F)c1 [Compound 39]	dose-dependent blocking	1.2 ± 0.1 µM	5.1 ± 0.5 µM	6.3 ± 0.6 µM	induces Bax/Bak-dependent cell death; also recorded: dose-dependent increase in cell death	rescued the cells		
O=C(CSc1nnc(-c2ccco2)c(-c2ccco2)n1)Nc1ccccc1 [Compound 19]		3.2 ± 0.3 µM	13 µM and 13.8 µM	13 µM and 13.4 µM			inducing cell death	without significant cell death induction

— PMC6033896, “Discovery of Mcl-1 inhibitors from integrated high throughput and virtual screening” (Scientific Reports, 2018)
